In ChEMBL document CHEMBL1201862, “PubChem BioAssay data set” (2004):
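These data come from cells grown in 96-well plates and exposed to compound for 48 hours at five concentrations. The concentration for 50% growth inhibition is given as GI50.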 The source made the active and inactive calls. No stated cut-off is given here; in the data, active = GI50 up to about 1.1 µM and inactive = higher.

Legend:
Test in all cases: NCI anticancer screen, dose series, 48 h
[1] = test system: 786-0
[2] = test system: SNB-19
[3] = test system: COLO 205
[4] = test system: SW-620
[5] = test system: RPMI-8226
[6] = test system: Malme-3M
[7] = test system: HOP-62
[8] = test system: UO-31
[9] = test system: OVCAR-3
[10] = test system: A498
[11] = test system: SK-MEL-5
[12] = test system: MOLT-4
[13] = test system: HCT-15
[14] = test system: M14
[15] = test system: HL-60
[16] = test system: SNB-75
[17] = test system: HOP-92

For `CC/C(=C(\c1ccccc1)c1ccc(OCC[N+](C)(C)C)cc1)c1ccccc1` [TAMOXIFEN METHYL IODIDE], the GI50 [1] was 13.7 µM (inactive), the GI50 [2] was 17.4 µM (inactive) and the GI50 [3] was 5.31 µM (inactive). The GI50 [4] was 16 µM (inactive), the GI50 [5] was 9.29 µM (inactive) and the GI50 [6] was 12.8 µM (inactive). The GI50 [7] was 32.4 µM (inactive), the GI50 [8] was 21.1 µM (inactive) and the GI50 [9] was 4.76 µM (inactive). For the same molecule, the GI50 [10] was 19 µM (inactive), the GI50 [11] was 4.59 µM (inactive) and the GI50 [12] was 17.7 µM (inactive). The GI50 [13] was 17.7 µM, the GI50 [14] was 14.7 µM (inactive) and the GI50 [15] was 2.52 µM (inactive). For the same molecule, the GI50 [16] was 8.85 µM (inactive).
With `Cc1ccc2c(c1)-c1c3c(nn1C)-c1ccccc1SC3O2` (centres undefined) the GI50 [1] was > 100 µM (inactive), the GI50 [3] was 75.5 µM (inactive) and the GI50 [4] was > 100 µM (inactive). For the same molecule, the GI50 [5] was 21.8 µM (inactive), the GI50 [17] was 27 µM (inactive) and the GI50 [6] was > 100 µM (inactive). The GI50 [7] was > 100 µM (inactive), the GI50 [8] was 20.8 µM (inactive) and the GI50 [9] was 85.9 µM (inactive). The GI50 [10] was 49.7 µM (inactive), the GI50 [12] was 26.1 µM (inactive) and the GI50 [15] was 24.5 µM (inactive). The GI50 [16] was 55.8 µM (inactive).
For `CC(C)(C)C1=CC(=C(P(=O)(O)O)P(=O)(O)O)C=C(C(C)(C)C)C1=O`, the GI50 [1] was > 50 µM (inactive), the GI50 [2] was > 50 µM (inactive) and the GI50 [4] was > 50 µM (inactive). For the same molecule, the GI50 [5] was > 50 µM (inactive), the GI50 [17] was > 50 µM (inactive) and the GI50 [6] was > 50 µM (inactive). For the same molecule, the GI50 [7] was > 50 µM (inactive), the GI50 [8] was > 50 µM (inactive) and the GI50 [9] was > 50 µM (inactive). For the same molecule, the GI50 [10] was > 50 µM (inactive), the GI50 [11] was > 50 µM (inactive) and the GI50 [12] was > 50 µM (inactive). The GI50 [13] was > 50 µM, the GI50 [14] was > 50 µM (inactive) and the GI50 [15] was > 50 µM (inactive). The GI50 [16] was > 50 µM (inactive).
In the case of `CCOC(=O)c1cc2c3c(c(O)c(OC)c2s1)N(C(=O)c1cc2c4c(c(O)c(OC)c2s1)N(C(C)=O)CC4)CC3`, the GI50 [1] is reported as 36.6 µM (inactive), the GI50 [2] is reported as > 100 µM (inactive) and the GI50 [3] is reported as > 100 µM (inactive). For the same molecule, the GI50 [4] was > 100 µM (inactive), the GI50 [5] was > 100 µM (inactive) and the GI50 [17] was 29 µM (inactive). The GI50 [6] was 77.8 µM (inactive), the GI50 [7] was 35.6 µM (inactive) and the GI50 [8] was 64.4 µM (inactive). The GI50 [9] was 24.4 µM (inactive), the GI50 [10] was 31.2 µM (inactive) and the GI50 [11] was 85.1 µM (inactive). For the same molecule, the GI50 [14] was 46.5 µM (inactive), the GI50 [15] was 28.2 µM (inactive) and the GI50 [16] was 23.4 µM (inactive).
With `COc1cc(OC)c2c(=O)c3cccc([N+](=O)[O-])c3n(C)c2c1` the GI50 [1] was > 100 µM (inactive), the GI50 [2] was > 100 µM (inactive) and the GI50 [3] was > 100 µM (inactive). For the same molecule, the GI50 [4] was > 100 µM (inactive), the GI50 [5] was > 100 µM (inactive) and the GI50 [6] was > 100 µM (inactive). The GI50 [8] was > 100 µM (inactive), the GI50 [11] was > 100 µM (inactive) and the GI50 [12] was 47 µM (inactive). For the same molecule, the GI50 [13] was > 100 µM, the GI50 [14] was > 100 µM (inactive) and the GI50 [15] was 31.3 µM (inactive). For the same molecule, the GI50 [16] was > 100 µM (inactive).
With `COc1cc(CC(=O)c2cc3c(cc2-c2ccccc2)OCO3)cc(OC)c1OC` the GI50 [1] was > 100 µM (inactive), the GI50 [2] was 72.3 µM (inactive) and the GI50 [3] was 56.4 µM (inactive). The GI50 [4] was 43.4 µM (inactive), the GI50 [17] was < 0.01 µM (active) and the GI50 [6] was 16.9 µM (inactive). The GI50 [7] was 79.6 µM (inactive), the GI50 [8] was 19.5 µM (inactive) and the GI50 [9] was 31 µM (inactive). The GI50 [10] was 33.3 µM (inactive), the GI50 [11] was 6.62 µM (inactive) and the GI50 [12] was 17.7 µM (inactive). The GI50 [13] was 66.5 µM, the GI50 [14] was 45.9 µM (inactive) and the GI50 [15] was 11.1 µM (inactive). The GI50 [16] was 1.18 µM (inactive).
For `[O-][S+](Cc1ccccc1)c1nc2ccccc2nc1-c1cccs1` (centres undefined), the GI50 [1] was 11.3 µM (inactive), the GI50 [2] was 18.2 µM (inactive) and the GI50 [3] was 20 µM (inactive). The GI50 [5] was 17.9 µM (inactive), the GI50 [17] was 15.6 µM (inactive) and the GI50 [6] was 6.18 µM (inactive). For the same molecule, the GI50 [7] was 19.2 µM (inactive), the GI50 [8] was 24.8 µM (inactive) and the GI50 [9] was 11.2 µM (inactive). For the same molecule, the GI50 [11] was 11.4 µM (inactive), the GI50 [12] was 3.53 µM (inactive) and the GI50 [13] was 9.29 µM. For the same molecule, the GI50 [14] was 11 µM (inactive), the GI50 [15] was 3.49 µM (inactive) and the GI50 [16] was 17.6 µM (inactive).
In the case of `CCCCCCCCCCCCCCCC(=O)OCC1OC(N2C(=O)/C(=N\NC(N)=S)c3ccc([N+](=O)[O-])cc32)C(OC(C)=O)C1OC(C)=O` (centres undefined), the GI50 [1] is reported as > 100 µM (inactive), the GI50 [2] is reported as > 100 µM (inactive) and the GI50 [3] is reported as 37.1 µM (inactive). For the same molecule, the GI50 [4] was > 100 µM (inactive), the GI50 [5] was > 100 µM (inactive) and the GI50 [17] was 93.5 µM (inactive). For the same molecule, the GI50 [6] was > 100 µM (inactive), the GI50 [7] was > 100 µM (inactive) and the GI50 [9] was 60.3 µM (inactive). The GI50 [11] was 97.5 µM (inactive), the GI50 [12] was > 100 µM (inactive) and the GI50 [13] was 86.1 µM. For the same molecule, the GI50 [14] was 62.2 µM (inactive), the GI50 [15] was > 100 µM (inactive) and the GI50 [16] was > 100 µM (inactive).
`Nc1nc2c3nc(Nc4ccccc4)sc3nc(=S)n2c2sc(Nc3ccccc3)nc12` was tested, and the GI50 [1] was 73.8 µM (inactive), the GI50 [2] was 40.1 µM (inactive) and the GI50 [3] was > 100 µM (inactive). The GI50 [4] was > 100 µM (inactive), the GI50 [17] was 4.66 µM (inactive) and the GI50 [6] was 47.4 µM (inactive). The GI50 [7] was > 100 µM (inactive), the GI50 [8] was > 100 µM (inactive) and the GI50 [10] was > 100 µM (inactive). The GI50 [11] was > 100 µM (inactive), the GI50 [13] was > 100 µM and the GI50 [14] was > 100 µM (inactive). The GI50 [15] was > 100 µM (inactive) and the GI50 [16] was 50.8 µM (inactive).
In the case of `COc1ccc(C(C2=C(C)C(=O)c3ccccc3C2=O)c2ccc(C(C)C)cc(=O)c2O)cc1` (centres undefined), the GI50 [1] is reported as 2.53 µM (inactive), the GI50 [3] is reported as 5.31 µM (inactive) and the GI50 [4] is reported as 6.1 µM (inactive). For the same molecule, the GI50 [5] was 3.74 µM (inactive), the GI50 [17] was 3.57 µM (inactive) and the GI50 [6] was 4.26 µM (inactive). The GI50 [7] was 2.59 µM (inactive), the GI50 [8] was 2.12 µM (inactive) and the GI50 [9] was 2.68 µM (inactive). The GI50 [11] was 5.96 µM (inactive), the GI50 [12] was 3.47 µM (inactive) and the GI50 [13] was 2.58 µM. For the same molecule, the GI50 [14] was 2.53 µM (inactive), the GI50 [15] was 2.61 µM (inactive) and the GI50 [16] was 2.59 µM (inactive).
For `COC1CCC(=C2C(=O)OC(C)(C)OC2=O)N1` (centres undefined), the GI50 [1] was > 100 µM (inactive), the GI50 [2] was > 100 µM (inactive) and the GI50 [3] was > 100 µM (inactive). For the same molecule, the GI50 [4] was > 100 µM (inactive), the GI50 [5] was > 100 µM (inactive) and the GI50 [6] was > 100 µM (inactive). The GI50 [7] was > 100 µM (inactive), the GI50 [8] was > 100 µM (inactive) and the GI50 [12] was > 100 µM (inactive). The GI50 [13] was > 100 µM, the GI50 [14] was > 100 µM (inactive) and the GI50 [15] was > 100 µM (inactive). For the same molecule, the GI50 [16] was > 100 µM (inactive).
For `CCN(CC)c1ccc(Cl)c2c1C(O)(C(C)C)C2(C)C` (centres undefined), the GI50 [1] was 14.5 µM (inactive), the GI50 [2] was 15.2 µM (inactive) and the GI50 [3] was 15.2 µM (inactive). For the same molecule, the GI50 [4] was 18.1 µM (inactive), the GI50 [5] was 13.2 µM (inactive) and the GI50 [6] was 13.9 µM (inactive). The GI50 [7] was 23.7 µM (inactive), the GI50 [8] was 17.3 µM (inactive) and the GI50 [9] was 12.6 µM (inactive). For the same molecule, the GI50 [10] was 21.3 µM (inactive), the GI50 [11] was 15.4 µM (inactive) and the GI50 [12] was 16.5 µM (inactive). For the same molecule, the GI50 [13] was 14.5 µM, the GI50 [14] was 16.4 µM (inactive) and the GI50 [15] was 15.6 µM (inactive). The GI50 [16] was 18 µM (inactive).
In the case of `CCOC(=O)C/N=c1\nc(SC)sc2c(C(=O)OCC)nc(Sc3ccccc3)n12`, the GI50 [1] is reported as 21.6 µM (inactive), the GI50 [3] is reported as > 100 µM (inactive) and the GI50 [4] is reported as > 100 µM (inactive). The GI50 [5] was 8.41 µM (inactive), the GI50 [17] was 20.8 µM (inactive) and the GI50 [6] was 32.6 µM (inactive). The GI50 [7] was 52.1 µM (inactive), the GI50 [8] was 17.8 µM (inactive) and the GI50 [9] was 30.3 µM (inactive). The GI50 [11] was > 100 µM (inactive), the GI50 [14] was > 100 µM (inactive) and the GI50 [15] was > 100 µM (inactive).
In the case of `Cc1ccc(-c2cc(-c3ccco3)nc(N)n2)o1`, the GI50 [1] is reported as > 100 µM (inactive), the GI50 [2] is reported as > 100 µM (inactive) and the GI50 [3] is reported as > 100 µM (inactive). For the same molecule, the GI50 [4] was > 100 µM (inactive), the GI50 [5] was > 100 µM (inactive) and the GI50 [6] was > 100 µM (inactive). For the same molecule, the GI50 [7] was > 100 µM (inactive), the GI50 [8] was 58.2 µM (inactive) and the GI50 [9] was > 100 µM (inactive). The GI50 [11] was > 100 µM (inactive), the GI50 [12] was > 100 µM (inactive) and the GI50 [13] was > 100 µM. For the same molecule, the GI50 [14] was > 100 µM (inactive), the GI50 [15] was > 100 µM (inactive) and the GI50 [16] was 37.2 µM (inactive).
